Like-named read-outs stand apart in the source and are kept apart here.
Assays:
[1] = 13C-signal enhancement after low-field pumping and dissolution (solution experiments); format: physicochemical; conditions: 20 mg solid in 3 ml deuterium oxide, 40° C., holding field 0.4 T
Experimental: A sample of solid 1-^13C-2,2,2′,2′,2″,2″-hexadeuterotris(hydroxymethyl)nitromethane was subjected to a magnetic field of 6.56 T at a temperature of 2.5 K for 10 minutes. The sample was then removed from the centre of the magnet to the stray field (7 mT) for a duration 1 s and then returned to the magnet. After another 10 minutes the process was repeated one more.
(§1) A sample of solid 1-^13C-2,2,2′,2′,2″,2″-hexadeuterotris(hydroxymethyl)nitromethane (20 mg) was subjected to the above-mentioned pumping procedure (see Examples 5-7) and then in less than 1 second moved to a holding field of 0.4 T where also a sample of deuterium oxide (3 ml) at a temperature of 40° C., stirred by nitrogen bubbling, was kept. […] The sample was inserted into the spectrometer and a ^13C-spectrum was recorded. […]
as §1, with “2-^13C-2,2-bis(trideuteromethyl)-1,1,3,3-tetradeuteropropane-1,3-diol” for “1-^13C-2,2,2′,2′,2″,2″-hexadeuterotris(hydroxymethyl)nitromethane”

[2] = T1-values for the 13C atom in human bloodplasma; format: physicochemical; conditions: 37° C., 7 T
Source text: (§2) T1-values for the ^13C atom in 1-^13C-2,2,2′,2′,2″,2″-hexadeuterotris(hydroxymethyl)nitromethane
(§3) T1-values for the ^13C atom in 2-^13C-2,2-bis(trideuteromethyl)-1,1,3,3-tetradeuteropropane-1,3-diol

[3] = T1-values for the 13C atom (water solution and solid); format: physicochemical; conditions: 7 T
Source text: as §2, §3

[4] = T1 in the blood after injection of the dissolved polarised agent; format: in vivo; conditions: 300 mg dissolved in 10 ml Ringers Solution, 37° C., pH 7.4, injected
Experimental: 300 mg of sterile Na2^13CO3 or NaH^13CO3 is placed inside a 10 ml plastic injection syringe. The gas inside the syringe is enriched with >20% […]. The syringe is placed inside a magnet (1-20 T) at a temperature of about 4 K (0.001-5 K) until thermodynamic equilibrium is reached.
The syringe is removed and transported to the subject located in the MRI magnet. 10 ml of sterile Ringers Solution (at 37° C., pH 7.4) is aspirated and injected at a rate of 10 ml/sec immediately after the high T1 agent has dissolved. 13C MRI is performed using a fast pulse sequence. T1 in the blood is about 20 s and the distribution of the agent is followed on the MR imager.

[5] = solid
Source text: Where Mmax is the magnetisation of the sample after complete relaxation at the final field.
This procedure can be repeated after the protons have repolarised again, successively building up the carbon polarisation until the spin-temperature of the two nuclei become the same. […] Generally fluorine relaxes even faster than protons and it would be possible to include a fluorine atom in the contrast agent molecule as an internal relaxation agent.
It is also possible to use quadrupolar nuclei for this process. […] The magnetic storage field must be large enough to avoid overlap of the resonances of the wanted nucleus and any rapidly relaxing quadrupolar nuclei. It is known that this phenomenon causes the rapid relaxation of frozen ^129Xe in a low field, when spin diffusion to the quadrupolar ^131Xe becomes efficient.

[2H]C([2H])(O)[13C]([N+](=O)[O-])(C([2H])([2H])O)C([2H])([2H])O [1-^13C-2,2,2′,2′,2″,2″-hexadeuterotris(hydroxymethyl)nitromethane]
Time until a clear solution was obtained [1]: less than 1 S | T1-value for the 13C atom [2]: 60 s | T1-value for the 13C atom ([3]; H2O, air saturated, 37° C.): 95 s | T1-value for the 13C atom ([3]; H2O, degassed, 37° C.): 102 s | T1-value for the 13C atom ([3]; Solid, 2.5 K): 198000 s | T1-value for the 13C atom ([3]; Solid, 20° C.): 1320 s | T1-value for the 13C atom ([3]; Solid, −30° C.): 2820 s

[2H]C([2H])([2H])[13C](C([2H])([2H])[2H])(C([2H])([2H])O)C([2H])([2H])O [2-^13C-2,2-bis(trideuteromethyl)-1,1,3,3-tetradeuteropropane-1,3-diol]
Time until a clear solution was obtained [1]: less than 1 S | T1-value for the 13C atom [2]: 96 s | T1-value for the 13C atom ([3]; H2O, air saturated, 37° C.): 133 s | T1-value for the 13C atom ([3]; H2O, degassed, 37° C.): 157 s | T1-value for the 13C atom ([3]; Solid, 2.5 K): 162000 s | T1-value for the 13C atom ([3]; Solid, 20° C.): 237 s

O=[13C]([O-])[O-].[Na+].[Na+] [Na2^13CO3]
T1 in the blood [4]: about 20 s

O=[13C]([O-])O.[Na+] [NaH^13CO3, sodium bicarbonate—^13C]
T1 in the blood [4]: about 20 s

CC(=O)[O-].[Na+] [sodium acetate]
T1,0 (time constant for relaxation at no external magnetic field) ([5]; carbonyl carbon): about 5 seconds | T1 of the carbonyl carbon ([5]; at 7 T): 1700 s | T1 of the carbonyl carbon ([5]; room temperature): 1700 s | T1 of the protons ([5]; room temperature): 31 s | T1 of the sodium ions ([5]; room temperature): 1.7 s

Source: patent US6466814B1, “Method of magnetic resonance investigation” (Amersham Health AS, priority 1998, dated 2002)
